Laboratory results from paper PMC6383986, “Fragment-Based Covalent Ligand Screening Enables Rapid Discovery of Inhibitors for the RBR E3 Ubiquitin Ligase HOIP” (Journal of the American Chemical Society, 2019).
“Also recorded” adds a separate entry of the source.

How the values were obtained:
[1] = target: T1, 3 × FLAG-tagged HOIP RBR from HEK293T cells (Homo sapiens, UniProt Q96EP0); test: Immunoprecipitation and on-bead polyubiquitination assay after in-cell labeling; type: cell-based; conditions: 30 μM, E1, UbcH7, ubiquitin
T1 construct: expressed in transfected cells; host or cells: HEK293T, transient, modified pcDNA3.1(+)
T1 sequence (Q96EP0 697-1072): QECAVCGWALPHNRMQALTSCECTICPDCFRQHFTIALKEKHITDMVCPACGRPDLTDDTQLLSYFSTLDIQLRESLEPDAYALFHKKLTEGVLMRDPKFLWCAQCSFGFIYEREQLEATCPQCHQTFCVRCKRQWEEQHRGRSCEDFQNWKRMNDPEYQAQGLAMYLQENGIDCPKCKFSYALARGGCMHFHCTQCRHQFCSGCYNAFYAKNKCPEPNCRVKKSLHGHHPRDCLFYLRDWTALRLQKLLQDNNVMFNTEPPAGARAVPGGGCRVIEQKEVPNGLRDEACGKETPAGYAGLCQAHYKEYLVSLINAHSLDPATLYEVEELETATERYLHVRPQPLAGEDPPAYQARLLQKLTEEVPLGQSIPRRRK
Procedure: Supplementary Figure S12. A) Uncropped SDS gel and B) and Western Blot (FLAG antibody, 1:1000 dilution) from the immunoprecipitation (IP) of 3×FLAG HOIP RBR from HEK293T cells.
The cells had been incubated with compounds (11a) or (11i) [30 µM], or DMSO for 8 h. C) TIC traces for DMSO control, (11a)- and (11i)-treated HEK293T cell lysate after IP and tryptic digest.
D) Extracted TIC traces for the tryptic peptide […], accounting for possible cysteine labelling (iodoacetamide, (11a) or (11i)) and methionine oxidation.
Immunoprecipitation and Polyubiquitination assay
The protein concentrations of the clarified lysates were normalized with reaction buffer (50 mM Tris-HCl, pH 7.5, 1.5 mM MgCl2, 150 mM NaCl, 1 mM Na3VO4, complete protease inhibitor) to 1.5 mg/mL (final volume 500 µL, and <0.1% IGEPAL-CA630). Magnetic beads containing anti-FLAG M2 antibody (20 µL suspension per vial; Merck) were immobilized using a magnetic stand (GE Healthcare), washed with PBS (2 × 0.5 mL) and reaction buffer (2 × 0.5 mL) and then suspended in the lysate mixtures. Beads without lysate was used as control. The bead […]
A polyubiquitination assay master mix was prepared by mixing E1, UbcH7, ubiquitin, MgCl2, in buffer (50 mM HEPES, 150 mM NaCl, pH 7.5). […] All samples were analyzed by SDS PAGE and Western Blot (Figure 6C and Supplementary Figure S13) as described in sections 4.5 and 4.6. […]

[2] = target: T2, full-length recombinant IRAK4-FLAG (Homo sapiens, UniProt Q9NWZ3); test: LCMS labelling of recombinant IRAK4; type: binding; conditions: 300 μM compound, 1.5 μM IRAK4, 1 h
T2 construct: recombinant full length IRAK4-FLAG; His6 (with the rest of the FlagHisAvi vector tag) (C, cleaved yes); made in house; host or cells: Sf9 insect cells (baculovirus)
T2 sequence (Q9NWZ3 whole entry): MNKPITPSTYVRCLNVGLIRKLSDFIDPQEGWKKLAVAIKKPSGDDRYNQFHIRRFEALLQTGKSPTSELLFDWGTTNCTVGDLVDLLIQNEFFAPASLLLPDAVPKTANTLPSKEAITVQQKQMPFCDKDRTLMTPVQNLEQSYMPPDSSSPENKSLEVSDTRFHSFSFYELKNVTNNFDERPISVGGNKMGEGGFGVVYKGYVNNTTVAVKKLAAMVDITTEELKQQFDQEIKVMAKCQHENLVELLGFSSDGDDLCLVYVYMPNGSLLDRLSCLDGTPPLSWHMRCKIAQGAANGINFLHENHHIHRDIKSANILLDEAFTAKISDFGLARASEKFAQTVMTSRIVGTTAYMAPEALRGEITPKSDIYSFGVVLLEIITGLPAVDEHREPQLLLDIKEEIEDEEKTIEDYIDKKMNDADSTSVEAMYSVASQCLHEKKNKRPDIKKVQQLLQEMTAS
Procedure: filter BODIPY FP S-pol 595). The percentage activity was plotted against different compound concentrations and fitted using the IC50 – 4 parameter logistic using GraFit7 Software (Supplementary Figure S17). Percentage activity was calculated by dividing each value by values for no inhibition, then multiplying it by 100. Background correction was carried out by subtracting […]
Two independent experiments were carried out in duplicate.
IRAK4 (1.5 µM) was incubated with compound (11a) (300 µM) in water at ambient temperature for 1 h (final volume 20 µL), and analyzed by LCMS. […]
kinase activity. A) Serial dilutions of compound (11a) (200 µM final top concentration) and IRAK4 […]
concentration) for 1 h before adding 5TAMRA-[…]-NH2 (100 nM final […]
concentration) and ATP (50 μM final concentration). […]
independent experiments, each performed in duplicate.
B) IRAK4 (1.5 µM) was incubated with compound (11a) (300 µM) for 1 h and analyzed by LCMS. The DMSO control was incubated for 5 h. For reference GT-hIRAK4-FLAG (tetraphosphorylated; MW = 53003 Da), compound (11a) (MW = 290 Da).
(1 picture or pasted object on this page, not shown here)

For COC(=O)/C=C/CNC(=O)c1cc2c([nH]c1=O)CCCC2 [Compound 11a], the “catalytic activity of HOIP (free polyubiquitin chain formation) after in-cell labeling” value [1] was “significant loss of the catalytic activity; also recorded: significant decrease in free polyubiquitin chain formation” and the “labelling of IRAK4-FLAG” value [2] was “confirmed by LCMS”.
